The values below are quoted from earlier work in patent publication EP1964550A1, “Glucocorticoid-nitrooxyderivative compositions” (NicOx S.A., priority 2007, dated 2008).

The data set has as its system irritant acute dermatitis. As to conditions: oedema formation and recruitment of leukocytes evaluated; compared with parent compound hydrocortisone.

With `C[C@]12CCC(=O)C=C1CC[C@@H]1[C@@H]2[C@@H](O)C[C@@]2(C)[C@H]1CC[C@]2(O)C(=O)COC(=O)c1ccc(CO[N+](=O)[O-])cc1` [hydrocortisone 21-[4'-(nitrooxymethyl)benzoate]], the anti-inflammatory activity entry is on record as “higher anti-inflammatory activity than the parent compound hydrocortisone”.
